PMC10824666 (Nature Cancer, 2023)
Where two headings read alike, the source gives them in different places.

Key:
Experiment in all cases: biochemical
Parameters in all cases: Eurofins DiscoverX kinase panel, competitive binding assay at 1 uM, percent of DMSO control
Details in all cases: competitive binding, percent of DMSO control
TAK1 = target: T1, TAK1 (Homo sapiens, UniProt O43318)
T1 construct: gene MAP3K7
T1 sequence (O43318 1-606): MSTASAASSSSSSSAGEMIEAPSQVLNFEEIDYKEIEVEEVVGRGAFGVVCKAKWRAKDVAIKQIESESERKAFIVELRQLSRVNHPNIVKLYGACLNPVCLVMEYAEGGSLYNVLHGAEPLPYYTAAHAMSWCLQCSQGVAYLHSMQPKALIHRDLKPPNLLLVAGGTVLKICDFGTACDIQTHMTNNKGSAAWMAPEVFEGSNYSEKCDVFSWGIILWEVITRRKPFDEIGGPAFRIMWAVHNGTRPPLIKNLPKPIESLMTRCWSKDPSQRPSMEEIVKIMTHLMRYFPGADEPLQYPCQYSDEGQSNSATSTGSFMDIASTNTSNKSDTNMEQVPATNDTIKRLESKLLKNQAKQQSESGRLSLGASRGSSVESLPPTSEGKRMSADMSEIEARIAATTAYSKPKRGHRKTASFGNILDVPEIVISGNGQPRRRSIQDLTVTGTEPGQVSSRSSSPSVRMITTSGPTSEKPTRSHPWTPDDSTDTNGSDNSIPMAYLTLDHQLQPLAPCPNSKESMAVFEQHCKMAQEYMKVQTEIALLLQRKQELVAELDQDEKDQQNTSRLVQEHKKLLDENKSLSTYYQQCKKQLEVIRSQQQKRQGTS
Procedure, shortened: (§1)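 Single-point profiling at 1 µM compound in a competition-binding format against 96 kinases, read out as POC relative to control; n = 1.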

PRKG1 = target: T2, PRKG1 (Homo sapiens, UniProt Q13976)
T2 sequence (Q13976 1-671): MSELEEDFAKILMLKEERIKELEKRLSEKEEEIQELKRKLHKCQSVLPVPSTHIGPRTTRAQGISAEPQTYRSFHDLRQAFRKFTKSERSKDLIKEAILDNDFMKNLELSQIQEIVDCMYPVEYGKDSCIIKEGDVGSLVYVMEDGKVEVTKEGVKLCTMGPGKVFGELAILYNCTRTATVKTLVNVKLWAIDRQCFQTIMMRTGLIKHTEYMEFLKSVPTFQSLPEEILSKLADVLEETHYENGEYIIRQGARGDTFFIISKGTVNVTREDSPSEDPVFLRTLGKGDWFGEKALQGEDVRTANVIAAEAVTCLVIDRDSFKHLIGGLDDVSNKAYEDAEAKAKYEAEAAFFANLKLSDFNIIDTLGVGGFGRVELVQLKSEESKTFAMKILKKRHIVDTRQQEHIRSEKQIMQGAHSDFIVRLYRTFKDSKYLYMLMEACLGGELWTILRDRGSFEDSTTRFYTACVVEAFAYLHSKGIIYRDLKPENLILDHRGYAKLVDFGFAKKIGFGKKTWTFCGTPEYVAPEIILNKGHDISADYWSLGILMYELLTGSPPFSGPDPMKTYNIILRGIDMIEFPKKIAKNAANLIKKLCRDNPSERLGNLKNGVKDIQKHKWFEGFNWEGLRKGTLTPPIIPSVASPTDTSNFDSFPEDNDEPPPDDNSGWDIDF
Procedure, shortened: as §1

MAPKAPK2 = MAPKAPK2 (Homo sapiens, UniProt P49137)
Procedure, shortened: as §1

PAK 2 = target: T3, PAK 2 (Homo sapiens, UniProt Q13177)
T3 construct: gene PAK2
Procedure, shortened: as §1

[1] = read-out: Kinome Profiling performed by Eurofins DiscoverX / AM-1882, 1.0 µM / POC
[2] = read-out: Kinome Profiling performed by Eurofins DiscoverX / AM-0277, 1.0 µM / POC
[3] = read-out: Kinome Profiling performed by Eurofins DiscoverX / AM-5308, 1.0 µM / POC

Sequence of MAPKAPK2 (P49137 whole entry): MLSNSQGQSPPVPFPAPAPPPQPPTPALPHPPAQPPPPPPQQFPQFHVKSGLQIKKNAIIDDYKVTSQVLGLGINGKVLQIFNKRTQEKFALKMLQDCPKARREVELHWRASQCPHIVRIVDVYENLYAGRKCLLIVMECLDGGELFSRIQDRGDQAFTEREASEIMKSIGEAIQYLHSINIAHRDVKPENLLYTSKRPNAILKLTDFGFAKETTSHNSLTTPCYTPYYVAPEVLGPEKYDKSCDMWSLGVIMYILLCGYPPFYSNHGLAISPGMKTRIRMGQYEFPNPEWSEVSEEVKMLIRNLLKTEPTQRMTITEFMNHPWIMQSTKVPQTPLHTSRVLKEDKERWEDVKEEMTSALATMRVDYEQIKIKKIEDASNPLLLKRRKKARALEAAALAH
T3 sequence (Q13177 whole entry): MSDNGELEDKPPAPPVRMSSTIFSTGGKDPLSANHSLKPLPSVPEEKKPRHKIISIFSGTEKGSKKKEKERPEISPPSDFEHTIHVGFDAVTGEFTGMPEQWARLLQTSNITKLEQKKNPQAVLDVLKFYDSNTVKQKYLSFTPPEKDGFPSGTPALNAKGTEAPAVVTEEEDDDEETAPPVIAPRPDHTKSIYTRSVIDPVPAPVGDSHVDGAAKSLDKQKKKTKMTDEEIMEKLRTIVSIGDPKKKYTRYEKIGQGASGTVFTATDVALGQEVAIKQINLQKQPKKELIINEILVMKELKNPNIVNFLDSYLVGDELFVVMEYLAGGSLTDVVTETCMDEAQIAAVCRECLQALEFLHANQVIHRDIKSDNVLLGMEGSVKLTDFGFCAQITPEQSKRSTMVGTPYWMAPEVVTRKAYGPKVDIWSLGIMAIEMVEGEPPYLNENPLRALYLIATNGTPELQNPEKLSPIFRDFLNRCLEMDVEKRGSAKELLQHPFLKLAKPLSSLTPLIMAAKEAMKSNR

**Q.** With `CC(C)(C)NS(=O)(=O)c1cccc(NC(=O)c2ccc(S(=O)(=O)NC(C)(C)C)cc2N2CCC3(CC2)CC3)c1` [AM-1882] as the molecule, how does the remaining activity at 1 µM (TAK1; [1]) read?
**A.** 100%

**Q.** What about the remaining activity at 1 µM (PRKG1; [1]) of the same molecule?
**A.** 89%

**Q.** And the remaining activity at 1 µM (MAPKAPK2; [1])?
**A.** 95.5%

**Q.** And the remaining activity at 1 µM (PAK 2; [1])?
**A.** 100%

**Q.** How did the remaining activity at 1 µM (TAK1; [2]) turn out when `CC(C)(CO)Nc1ccc(C(=O)Nc2cccc(S(=O)(=O)C3CCCC3)c2)c(N2CCC3(CC2)CC3)n1` [AM-0277] was run?
**A.** 100%

**Q.** And the remaining activity at 1 µM (PRKG1; [2])?
**A.** 87%

**Q.** And the remaining activity at 1 µM (MAPKAPK2; [2])?
**A.** 79%

**Q.** And the remaining activity at 1 µM (PAK 2; [2])?
**A.** 100%

**Q.** What does the source list for `C[C@@H]1CN(c2cccc(NC(=O)c3ccc(NS(=O)(=O)CCO)cc3N3CCC4(CC3)CC4)n2)CCO1` [AM-5308]?
**A.** remaining activity at 1 µM (TAK1; [3]): 88.5%; remaining activity at 1 µM (PRKG1; [3]): 100%; remaining activity at 1 µM (MAPKAPK2; [3]): 95%; remaining activity at 1 µM (PAK 2; [3]): 66.5%
